Data: patent publication US20170190705A1, “Compositions and Methods for Inhibiting BMP” (THE BRIGHAM AND WOMAN'S HOSPITAL, INC., priority 2014, published 2017)

What was measured:
Type in all cases: biochemical
JAK3 = molecular target: T1, JAK3 (Homo sapiens, UniProt P52333); test: Kinome profiling JAK3; settings: read-out: Inhibitory activity JAK3; for inhibition at 0.1 µM: 100 nM
T1 sequence (P52333 1-1124): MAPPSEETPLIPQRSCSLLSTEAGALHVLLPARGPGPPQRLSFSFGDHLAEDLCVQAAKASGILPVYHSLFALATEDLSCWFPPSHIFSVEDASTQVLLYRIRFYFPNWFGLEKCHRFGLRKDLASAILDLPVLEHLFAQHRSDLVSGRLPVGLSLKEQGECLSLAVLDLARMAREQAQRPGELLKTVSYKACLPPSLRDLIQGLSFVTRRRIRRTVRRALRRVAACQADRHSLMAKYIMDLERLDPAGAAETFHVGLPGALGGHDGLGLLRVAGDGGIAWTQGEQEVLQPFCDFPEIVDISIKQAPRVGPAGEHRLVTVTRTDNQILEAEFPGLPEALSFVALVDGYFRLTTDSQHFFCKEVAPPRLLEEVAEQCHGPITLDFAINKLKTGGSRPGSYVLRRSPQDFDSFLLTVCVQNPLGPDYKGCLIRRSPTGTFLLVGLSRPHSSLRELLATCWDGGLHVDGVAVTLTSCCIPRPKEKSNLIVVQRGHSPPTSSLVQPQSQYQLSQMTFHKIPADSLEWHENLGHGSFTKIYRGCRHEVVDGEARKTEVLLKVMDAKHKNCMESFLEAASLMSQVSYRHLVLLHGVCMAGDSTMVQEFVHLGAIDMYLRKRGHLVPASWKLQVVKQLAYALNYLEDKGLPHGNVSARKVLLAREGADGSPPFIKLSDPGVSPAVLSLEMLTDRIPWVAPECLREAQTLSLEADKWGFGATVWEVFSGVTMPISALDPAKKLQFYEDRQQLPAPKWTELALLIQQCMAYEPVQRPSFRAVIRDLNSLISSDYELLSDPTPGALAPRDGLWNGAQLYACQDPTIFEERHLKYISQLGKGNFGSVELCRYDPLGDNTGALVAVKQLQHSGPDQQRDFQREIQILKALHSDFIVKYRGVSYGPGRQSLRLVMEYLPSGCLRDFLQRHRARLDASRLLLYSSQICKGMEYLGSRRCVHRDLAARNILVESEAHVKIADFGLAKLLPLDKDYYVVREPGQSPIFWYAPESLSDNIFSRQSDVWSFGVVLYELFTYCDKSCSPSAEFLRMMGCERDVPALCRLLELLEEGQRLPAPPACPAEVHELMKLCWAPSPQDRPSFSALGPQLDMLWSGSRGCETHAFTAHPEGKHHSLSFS
Protocol: (§1) . The kinome-wide selectivity was determined following the methods previously reported by Mohedas et al., ACS Chem Biol 2013, 8, 1291-1302 and Sanvitale et al., PLoS One 2013, 8, e62721.

FGFR2 = FGFR2 (Homo sapiens, UniProt P21802); test: Kinome profiling FGFR2; settings: read-out: Inhibitory activity FGFR2; for inhibition at 0.1 µM: 100 nM
Protocol: as §1

BRSK1 = molecular target: T2, BRSK1 (Homo sapiens, UniProt Q8TDC3); test: Kinome profiling BRSK1; settings: read-out: Inhibitory activity BRSK1; for inhibition at 0.1 µM: 100 nM
T2 sequence (Q8TDC3 1-778): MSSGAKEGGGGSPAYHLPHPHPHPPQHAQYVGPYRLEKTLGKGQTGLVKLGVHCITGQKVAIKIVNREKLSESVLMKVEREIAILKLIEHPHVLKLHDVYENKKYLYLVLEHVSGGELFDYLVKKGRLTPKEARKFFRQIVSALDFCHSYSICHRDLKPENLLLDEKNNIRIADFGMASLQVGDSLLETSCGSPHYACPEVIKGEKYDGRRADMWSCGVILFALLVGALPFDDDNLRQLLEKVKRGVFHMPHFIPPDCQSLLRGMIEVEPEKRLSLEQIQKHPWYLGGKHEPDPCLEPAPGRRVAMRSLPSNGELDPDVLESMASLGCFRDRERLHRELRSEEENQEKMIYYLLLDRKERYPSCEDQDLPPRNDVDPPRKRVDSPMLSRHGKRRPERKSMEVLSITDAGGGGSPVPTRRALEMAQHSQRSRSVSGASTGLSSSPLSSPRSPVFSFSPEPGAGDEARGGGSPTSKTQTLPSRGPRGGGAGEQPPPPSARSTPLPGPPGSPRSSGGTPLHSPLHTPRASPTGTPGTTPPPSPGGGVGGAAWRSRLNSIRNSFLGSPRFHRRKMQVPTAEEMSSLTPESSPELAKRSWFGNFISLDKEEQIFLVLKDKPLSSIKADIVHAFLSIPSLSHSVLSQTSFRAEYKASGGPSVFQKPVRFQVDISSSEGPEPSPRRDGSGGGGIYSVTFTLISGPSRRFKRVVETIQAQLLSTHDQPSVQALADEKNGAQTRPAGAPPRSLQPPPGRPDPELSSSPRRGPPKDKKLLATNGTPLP
Protocol: as §1

Chain of FGFR2 (P21802 22-821): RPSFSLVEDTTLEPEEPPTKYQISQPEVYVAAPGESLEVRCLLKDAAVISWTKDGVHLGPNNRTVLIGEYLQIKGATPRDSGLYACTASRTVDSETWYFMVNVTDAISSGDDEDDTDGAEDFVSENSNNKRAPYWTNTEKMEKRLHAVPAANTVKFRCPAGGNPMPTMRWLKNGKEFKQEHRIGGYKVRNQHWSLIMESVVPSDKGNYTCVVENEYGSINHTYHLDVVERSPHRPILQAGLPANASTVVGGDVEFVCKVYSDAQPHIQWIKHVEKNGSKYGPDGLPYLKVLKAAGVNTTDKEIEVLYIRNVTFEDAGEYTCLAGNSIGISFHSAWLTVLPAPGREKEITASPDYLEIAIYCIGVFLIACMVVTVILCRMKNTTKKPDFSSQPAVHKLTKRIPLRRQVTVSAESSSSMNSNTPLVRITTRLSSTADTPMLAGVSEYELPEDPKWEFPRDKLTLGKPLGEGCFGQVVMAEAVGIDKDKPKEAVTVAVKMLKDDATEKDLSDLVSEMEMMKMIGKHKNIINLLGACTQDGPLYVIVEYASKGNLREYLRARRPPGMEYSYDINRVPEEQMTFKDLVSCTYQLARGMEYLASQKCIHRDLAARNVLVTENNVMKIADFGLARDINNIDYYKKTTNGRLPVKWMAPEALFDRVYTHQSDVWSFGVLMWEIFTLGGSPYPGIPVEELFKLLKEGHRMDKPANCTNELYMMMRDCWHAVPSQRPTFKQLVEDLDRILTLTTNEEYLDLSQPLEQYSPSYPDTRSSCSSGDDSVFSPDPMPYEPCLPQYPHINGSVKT

SMILES | inhibition at 0.1 µM (JAK3) | inhibition at 1 µM (JAK3) | inhibition at 0.1 µM (FGFR2) | inhibition at 1 µM (FGFR2) | inhibition at 0.1 µM (BRSK1) | inhibition at 1 µM (BRSK1)
COc1cc(-c2cc(-c3ccc(N4CCNCC4)cc3)cnc2N)cc(OC)c1OC [Compound 15, 5-(4-(piperazin-1-yl)phenyl)-3-(3,4,5-trimethoxyphenyl)pyridin-2-amine] | 0% | 3% | 2% | 5% | 0% | 0%
COc1cc(-c2cc(-c3ccc(N4CCNCC4)cc3)cnc2C)cc(OC)c1OC [Compound 10, 1-(4-(6-methyl-5-(3,4,5-trimethoxyphenyl)pyridin-3-yl)phenyl)piperazine] | 3% | 3% | -1% | 0% | 1% | 1%
